Assay results from patent US10213429B2, “Imidazo-pyrazinyl derivatives useful as soluble guanylate cyclase activators” (Merck Sharp & Dohme Corp., priority 2015, dated 2019).

Target: T1, sGC α1/β1 heterodimer (Homo sapiens, UniProt Q02108+Q02153)
T1 construct: expressed in transfected cells; host or cells: CHO-K1 (clone #7, CHO-K1/sGC)
T1 sequence (Q02108 1-690): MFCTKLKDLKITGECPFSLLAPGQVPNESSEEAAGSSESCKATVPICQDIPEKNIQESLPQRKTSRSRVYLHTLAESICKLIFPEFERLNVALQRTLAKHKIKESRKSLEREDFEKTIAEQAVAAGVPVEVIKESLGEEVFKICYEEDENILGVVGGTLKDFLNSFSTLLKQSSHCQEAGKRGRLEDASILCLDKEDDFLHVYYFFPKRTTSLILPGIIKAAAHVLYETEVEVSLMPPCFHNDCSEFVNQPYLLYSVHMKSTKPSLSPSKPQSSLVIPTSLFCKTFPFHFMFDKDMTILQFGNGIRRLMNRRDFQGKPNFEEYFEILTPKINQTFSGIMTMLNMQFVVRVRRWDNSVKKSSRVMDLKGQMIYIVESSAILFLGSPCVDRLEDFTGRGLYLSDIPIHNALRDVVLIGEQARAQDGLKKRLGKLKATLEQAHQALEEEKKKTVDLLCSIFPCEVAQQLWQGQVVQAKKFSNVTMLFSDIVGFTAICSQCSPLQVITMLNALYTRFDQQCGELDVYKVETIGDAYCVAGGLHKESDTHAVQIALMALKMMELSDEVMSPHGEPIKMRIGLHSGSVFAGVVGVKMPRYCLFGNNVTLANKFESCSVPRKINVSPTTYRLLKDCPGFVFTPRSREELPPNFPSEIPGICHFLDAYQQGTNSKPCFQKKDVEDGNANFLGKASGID
T1 sequence (Q02153 1-619): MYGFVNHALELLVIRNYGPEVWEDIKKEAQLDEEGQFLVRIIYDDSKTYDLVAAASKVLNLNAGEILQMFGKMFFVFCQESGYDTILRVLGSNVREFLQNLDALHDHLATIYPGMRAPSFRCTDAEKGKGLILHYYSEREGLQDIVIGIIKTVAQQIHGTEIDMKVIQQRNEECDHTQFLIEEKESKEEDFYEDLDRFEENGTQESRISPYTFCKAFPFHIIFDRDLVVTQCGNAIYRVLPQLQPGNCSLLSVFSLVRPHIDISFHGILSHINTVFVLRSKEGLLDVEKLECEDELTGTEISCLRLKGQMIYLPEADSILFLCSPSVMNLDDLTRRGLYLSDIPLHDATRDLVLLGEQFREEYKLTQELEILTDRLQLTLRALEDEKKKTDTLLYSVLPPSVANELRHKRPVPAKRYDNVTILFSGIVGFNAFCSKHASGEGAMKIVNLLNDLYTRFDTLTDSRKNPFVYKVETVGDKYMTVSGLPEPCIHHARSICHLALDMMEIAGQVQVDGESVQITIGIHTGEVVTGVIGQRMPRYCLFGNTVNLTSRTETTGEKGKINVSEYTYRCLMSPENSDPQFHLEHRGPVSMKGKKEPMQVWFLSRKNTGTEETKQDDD
Assay: Cell-Based sGC Functional Assay (CASA Assay), cGMP by HTRF in CHO-K1/sGC cells
Conditions: for Emax: CHO-K1, percent activation relative to maximum cGMP production of Compound A (= 100%), read-out: % Act.; for EC50: cGMP production, 1 hr at 37° C., 4P fit, presence or absence of 1 μM DETA-NO not given, read-out: IP (nM) (inflection point)
Text: Biological Assay 1: Cell-Based sGC Functional Assay (CASA Assay)
sGC is a heme-containing enzyme that converts GTP to secondary messenger cGMP. Increases in cGMP levels affect several physiological processes including vasorelaxation through multiple downstream pathways. […] Heme-dependent activators (HDAs) preferentially activate sGC containing a ferrous heme group. To determine the effect of sGC activators on enzyme activity, the CASA assay was developed to monitor the generation of cGMP in a cell line that stably expresses the heterodimeric sGC protein.
A CHO-K1 cell line stably expressing the sGC α1/β1 heterodimer was generated using a standard transfection protocol. CHO-K1 cells were transfected with plasmids pIREShyghsGCα1 and pIRESneo-hsGCβ1 simultaneously using FUGENE reagent. Clones that stably express both subunits were selected with hygromycin and neomycin for ˜2 weeks. Clone #7 was chosen for the assay and was designated CHO-K1/sGC. CHO-K1/sGC cells were maintained in F-K12 medium containing 10% heat-inactivated Fetal Bovine Serum (FBS), 100 μg/mL penicillin/streptomycin, 0.5 mg/mL hygromycin and 0.25 mg/mL G418. The cells were then cryopreserved in LN2. On the day of the assay, cells were thawed and resuspended in EBSS Assay Buffer (Sigma, E3024) supplemented with 5 mM MgCl2, 10 mM HEPES (4-(2-hydroxyethyl)piperazine-1-ethanesulfonic acid) and 0.05% BSA (bovine serum albumin) (EAB) and cell density was then adjusted to 4×10^5/mL with EAB. IBMX (3-isobutyl-1-methylxanthin, 0.5 mM) was added to inhibit degradation of cGMP. Compounds were diluted from DMSO stock solutions and added to the assay at a final DMSO concentration of 2.5%. Cells were incubated with compounds in the presence and absence of 1 μM of Diethylenetriamine/nitric oxide adduct (DETA-NO; Sigma, 17018) for 1 hr at 37° C. At the end of the incubation period, the reaction was terminated and the cells were lysed with the detection reagents from Cisbio Kits. The level of intracellular cGMP was determined using an HTRF-based assay kit (CisBio, 62GM2PEC), which detects the displacement of a fluorescence labeled cGMP from its specific antibody. The cGMP produced by test compounds was directly compared to the maximum cGMP production (this value was set to equal 100% activation.) of the published sGC-HDA Compound A:
[drawing 175] (Example 1 in WO 2010/065275, published Jun. 10, 2010). The test compounds' activities were then expressed as a percentage of Compound A, the standard in every experiment. This percent activation was calculated either in the presence or absence of DETA-NO which was then plotted. IP and maximum fold induction was derived using ADA analysis software for 4P fit.
The compounds in the Examples of the instant invention had inflection points (IP) less than or equal to 10 μM and most less than or equal to about 1 μM.

Emax | EC50 | % Act. (percent activation relative to maximum cGMP production of Compound A (= 100%)) | Compound
127% | 105 nM | – | CC1(c2ccc(Cl)cc2)C(=O)Nc2nc(-c3cn4ccnc4cn3)nc(-c3ccccc3)c21 (stereo not shown) [Example 84A, 5-(4-Chlorophenyl)-2-(imidazo[1,2-a]pyrazin-6-yl)-5-methyl-4-phenyl-5H-pyrrolo[2,3-d]pyrimidin-6(7H)-one]
110% | 606 nM | – | COc1nc(-c2cn3ccnc3c(CCC(F)(F)C(F)(F)F)n2)nc2c1C(C)(c1ccc(F)cc1)C(=O)N2 (stereo not shown) [Example 89A, 5-(4-Fluorophenyl)-4-methoxy-5-methyl-2-(8-(3,3,4,4,4-pentafluorobutyl)imidazo[1,2-a]pyrazin-6-yl)-5H-pyrrolo[2,3-d]pyrimidin-6(7H)-one]
130% | 24 nM | – | O=C1Nc2nc(-c3cn4ccnc4c(CCCC(F)(F)F)n3)ncc2C1(c1ccc(Cl)c(F)c1)C1CC1 (stereo not shown) [Example 48A, 5-(4-chloro-3-fluorophenyl)-5-cyclopropyl-2-(8-(4,4,4-trifluorobutyl)imidazo[1,2-a]pyrazin-6-yl)-5H-pyrrolo[2,3-d]pyrimidin-6(7H)-one]
98% | 56 nM | – | CCCCc1nc(-c2ncc3c(n2)NC(=O)C3(c2ccc(OC(F)(F)F)cc2)C2CC2)cn2ccnc12 (stereo not shown) [Example 51A, 2-(8-butylimidazo[1,2-a]pyrazin-6-yl)-5-cyclopropyl-5-(4-(trifluoromethoxy)phenyl)-5H-pyrrolo[2,3-d]pyrimidin-6(7H)-one]
88% | 66 nM | – | O=C1Nc2nc(-c3cn4ccnc4c(CCC(F)(F)C(F)(F)F)n3)ncc2C1(c1ccc(F)cc1)C1CC1 (stereo not shown) [Example 11B, 5-cyclopropyl-5-(4-fluorophenyl)-2-(8-(3,3,4,4,4-pentafluorobutyl)imidazo[1,2-a]pyrazin-6-yl)-5H-pyrrolo[2,3-d]pyrimidin-6(7H)-one]
113% | 343 nM | – | O=C1Nc2nc(-c3cn4ccnc4c(CCC(F)(F)C(F)(F)F)n3)ncc2C1(c1ccc(Cl)cn1)C1CC1 (stereo not shown) [Example 7A, 5-(5-chloropyridin-2-yl)-5-cyclopropyl-2-(8-(3,3,4,4,4-pentafluorobutyl)imidazo[1,2-a]pyrazin-6-yl)-5H-pyrrolo[2,3-d]pyrimidin-6(7H)-one]
97% | 257 nM | – | CC1(c2ccc(F)cc2)C(=O)Nc2nc(-c3cn4ccnc4c(CCC(F)(F)C(F)(F)F)n3)nc(C#N)c21 (stereo not shown) [Example 85A, 5-(4-Fluorophenyl)-5-methyl-6-oxo-2-(8-(3,3,4,4,4-pentafluorobutyl)imidazo[1,2-a]pyrazin-6-yl)-6,7-dihydro-5H-pyrrolo[2,3-d]pyrimidine-4-carbonitrile]
110% | 22 nM | – | CC1(c2ccc(Cl)cc2)C(=O)Nc2nc(-c3cn4ccnc4c(CCCC(F)(F)F)n3)ncc21 (stereo not shown) [Example 40A, 5-(4-chlorophenyl)-5-methyl-2-(8-(4,4,4-trifluorobutyl)imidazo[1,2-a]pyrazin-6-yl)-5H-pyrrolo[2,3-d]pyrimidin-6(7H)-one]
70% | 183 nM | – | CC1(c2ccc(Cl)c(F)c2)C(=O)Nc2nc(-c3cn4ccnc4c(CCC(F)(F)F)n3)nc(O)c21 (stereo not shown) [Example 13B, 5-(4-chloro-3-fluorophenyl)-4-hydroxy-5-methyl-2-(8-(3,3,3-trifluoropropyl)imidazo[1,2-a]pyrazin-6-yl)-5H-pyrrolo[2,3-d]pyrimidin-6(7H)-one]
– | 61 nM | 130% | O=C1Nc2nc(-c3cn4ccnc4c(Cc4ccccc4F)n3)ncc2C1(C(=O)NC1CC1)C1CC1 (single isomer, unassigned) [Example 70B, N,5-dicyclopropyl-2-(8-(2-fluorobenzyl)imidazo[1,2-a]pyrazin-6-yl)-6-oxo-6,7-dihydro-5H-pyrrolo[2,3-d]pyrimidine-5-carboxamide]
90% | 136 nM | – | CC1(c2ccc(Cl)cc2)C(=O)Nc2nc(-c3cn4ccnc4c(OCCC4CC4)n3)nc(O)c21 (stereo not shown) [Example 94A, 5-(4-Chlorophenyl)-2-(8-(2-cyclopropylethoxy)imidazo[1,2-a]pyrazin-6-yl)-4-hydroxy-5-methyl-5H-pyrrolo[2,3-d]pyrimidin-6(7H)-one]
